Data as given in patent US6503881B2 (priority 1996, dated 2003).
Like-named read-outs stand apart in the source and are kept apart here.

How the values were obtained:
[1] = system: inherently resistant microorganisms; conditions: for MBI 26 MIC +Vancomycin: Teicoplanin table; for MIC in combination: Vancomycin +MBI 26
[2] = system: E. faecalis; type: cell-based; conditions: for MBI 26 MIC, +Teicoplanin: in combination with teicoplanin; for MIC in combination: Teicoplanin + MBI 26
[3] = system: A. calcoaceticus; experiment: Overcoming inherent resistance, MIC alone and in combination (agarose dilution); type: cell-based; conditions: A. calcoaceticus AC001
[4] = system: microorganisms with acquired resistance
[5] = system: K. pneumoniae; type: cell-based; conditions: for MIC Alone: agent alone; for MBI 26 MIC, +Erythro.: in combination with erythromycin

KWKSFIKKLTSAAKKVVTTAKPLISS [MBI 26]
MBI 26 MIC +Vancomycin ([1]; E. casseliflavus 97056 VanC): 2 µg/mL | MIC in combination ([1]; E. casseliflavus 97056 VanC): 1 µg/mL | MIC Alone ([1]; E. casseliflavus 97056 VanC, pair Teicoplanin / MBI 26): 64 µg/mL | MIC Alone ([1]; E. casseliflavus 97056 VanC, pair Vancomycin / MBI 26): 8 µg/mL | MBI 26 MIC +Vancomycin ([1]; E. casseliflavus 97057 VanC): 0.5 µg/mL | MIC in combination ([1]; E. casseliflavus 97057 VanC): 0.5 µg/mL | MIC Alone ([1]; E. casseliflavus 97057 VanC, pair Teicoplanin / MBI 26): 64 µg/mL | MIC Alone ([1]; E. casseliflavus 97057 VanC, pair Vancomycin / MBI 26): 2 µg/mL | MBI 26 MIC +Vancomycin ([1]; E. casseliflavus 97058 VanC): 0.5 µg/mL | MIC in combination ([1]; E. casseliflavus 97058 VanC): 0.25 µg/mL | MIC Alone ([1]; E. casseliflavus 97058 VanC, pair Teicoplanin / MBI 26): 32 µg/mL | MIC Alone ([1]; E. casseliflavus 97058 VanC, pair Vancomycin / MBI 26): 4 µg/mL | MBI 26 MIC +Vancomycin ([1]; E. casseliflavus 97059 VanC): 1 µg/mL | MIC in combination ([1]; E. casseliflavus 97059 VanC): 0.5 µg/mL | MIC Alone ([1]; E. casseliflavus 97059 VanC, pair Teicoplanin / MBI 26): 64 µg/mL | MIC Alone ([1]; E. casseliflavus 97059 VanC, pair Vancomycin / MBI 26): 32 µg/mL | MBI 26 MIC +Vancomycin ([1]; E. casseliflavus 97060 VanC): 1 µg/mL | MIC in combination ([1]; E. casseliflavus 97060 VanC): 0.25 µg/mL | MIC Alone ([1]; E. casseliflavus 97060 VanC, pair Teicoplanin / MBI 26): 64 µg/mL | MIC Alone ([1]; E. casseliflavus 97060 VanC, pair Vancomycin / MBI 26): 0.5 µg/mL | MBI 26 MIC +Vancomycin ([1]; E. gallinarum 97044 VanC): 1 µg/mL | MIC in combination ([1]; E. gallinarum 97044 VanC): 0.5 µg/mL | MIC Alone ([1]; E. gallinarum 97044 VanC, pair Teicoplanin / MBI 26): 64 µg/mL | MIC Alone ([1]; E. gallinarum 97044 VanC, pair Vancomycin / MBI 26): 8 µg/mL | MBI 26 MIC +Vancomycin ([1]; E. gallinarum 97046 VanC): 1 µg/mL | MIC in combination ([1]; E. gallinarum 97046 VanC): 4 µg/mL | MIC Alone ([1]; E. gallinarum 97046 VanC, pair Teicoplanin / MBI 26): 8 µg/mL | MIC Alone ([1]; E. gallinarum 97046 VanC, pair Vancomycin / MBI 26): 2 µg/mL | MBI 26 MIC +Vancomycin ([1]; E. gallinarum 97047 VanC): 32 µg/mL | MIC in combination ([1]; E. gallinarum 97047 VanC): 8 µg/mL | MIC Alone ([1]; E. gallinarum 97047 VanC, pair Teicoplanin / MBI 26): 64 µg/mL | MIC Alone ([1]; E. gallinarum 97047 VanC, pair Vancomycin / MBI 26): 64 µg/mL | MBI 26 MIC +Vancomycin ([1]; E. gallinarum 97048 VanC): 1 µg/mL | MIC in combination ([1]; E. gallinarum 97048 VanC): 2 µg/mL | MIC Alone ([1]; E. gallinarum 97048 VanC, pair Teicoplanin / MBI 26): 8 µg/mL | MIC Alone ([1]; E. gallinarum 97048 VanC, pair Vancomycin / MBI 26): 2 µg/mL | MBI 26 MIC +Vancomycin ([1]; E. gallinarum 97049 VanC): 32 µg/mL | MIC in combination ([1]; E. gallinarum 97049 VanC): 16 µg/mL | MIC Alone ([1]; E. gallinarum 97049 VanC, pair Teicoplanin / MBI 26): 64 µg/mL | MIC Alone ([1]; E. gallinarum 97049 VanC, pair Vancomycin / MBI 26): 64 µg/mL | MIC Alone ([2]; E. faecalis 97040 VanB, agent alone): 64 µg/mL | MBI 26 MIC, +Teicoplanin ([2]; E. faecalis 97040 VanB): 8 µg/mL | MIC Alone ([2]; E. faecalis 97041 VanB, agent alone): 64 µg/mL | MBI 26 MIC, +Teicoplanin ([2]; E. faecalis 97041 VanB): 8 µg/mL | MIC Alone ([2]; E. faecalis 97042 VanB, agent alone): 64 µg/mL | MBI 26 MIC, +Teicoplanin ([2]; E. faecalis 97042 VanB): 8 µg/mL | MIC Alone ([2]; E. faecalis 97043 VanB, agent alone): 64 µg/mL | MBI 26 MIC, +Teicoplanin ([2]; E. faecalis 97043 VanB): 8 µg/mL | MIC Alone ([2]; E. faecalis 97050 VanA): 64 µg/mL | MIC in combination ([2]; E. faecalis 97050 VanA): 8 µg/mL | MIC Alone ([2]; E. faecalis 97051 VanA): 64 µg/mL | MIC in combination ([2]; E. faecalis 97051 VanA): 8 µg/mL | MIC Alone ([2]; E. faecalis 97052 VanA): 64 µg/mL | MIC in combination ([2]; E. faecalis 97052 VanA): 8 µg/mL | MIC Alone ([2]; E. faecalis 97053 VanA): 64 µg/mL | MIC in combination ([2]; E. faecalis 97053 VanA): 8 µg/mL | MIC Alone ([2]; E. faecalis 97054 VanA): 64 µg/mL | MIC in combination ([2]; E. faecalis 97054 VanA): 8 µg/mL | MIC Alone ([2]; E. faecalis 97055 VanA): 64 µg/mL | MIC in combination ([2]; E. faecalis 97055 VanA): 8 µg/mL | MIC Alone ([3]; agent alone): 16 µg/mL | MBI 26 MIC, +Erythro. ([3]; in combination with erythromycin): 8 µg/mL | Peptide MIC ([4]; S. aureus SA7609, pair Erythromycin / MBI 26): 1 µg/mL | Peptide MIC ([4]; S. aureus SA7795, pair Erythromycin / MBI 26): 8 µg/mL | Peptide MIC ([4]; S. aureus SA7796, pair Erythromycin / MBI 26): 2 µg/mL | Peptide MIC ([4]; S. aureus SA7818, pair Methicillin / MBI 26): 2 µg/mL | Peptide MIC ([4]; S. aureus SA7835, pair Erythromycin / MBI 26): 2 µg/mL | Peptide MIC ([4]; S. aureus SA7835, pair Methicillin / MBI 26): 16 µg/mL | Peptide MIC ([4]; S. epidermidis SE8403, pair Erythromycin / MBI 26): 2 µg/mL | Peptide MIC ([4]; S. epidermidis SE8410, pair Erythromycin / MBI 26): 1 µg/mL | Peptide MIC ([4]; S. epidermidis SE8411, pair Erythromycin / MBI 26): 1 µg/mL | Peptide MIC ([4]; S. epidermidis SE8497, pair Clindamycin / MBI 26): 2 µg/mL | Peptide MIC ([4]; S. epidermidis SE8497, pair Erythromycin / MBI 26): 1 µg/mL | Peptide MIC ([4]; S. epidermidis SE8503, pair Erythromycin / MBI 26): 1 µg/mL | Peptide MIC ([4]; S. epidermidis SE8565, pair Erythromycin / MBI 26): 1 µg/mL | Peptide MIC ([4]; S. haemolyticus SH8472, pair Ampicillin / MBI 26): 16 µg/mL | Peptide MIC ([4]; S. haemolyticus SH8563, pair Methicillin / MBI 26): 2 µg/mL | Peptide MIC ([4]; S. haemolyticus SH8575, pair Ampicillin / MBI 26): 8 µg/mL | Peptide MIC ([4]; S. haemolyticus SH8578, pair Erythromycin / MBI 26): 0.1 µg/mL | Peptide MIC ([4]; S. haemolyticus SH8597, pair Clindamycin / MBI 26): 1 µg/mL | MIC Alone ([5]; K. pneumoniae KP001): 16 µg/mL | MBI 26 MIC, +Erythro. ([5]; K. pneumoniae KP001): 8 µg/mL | MIC Alone ([5]; K. pneumoniae KP002): 64 µg/mL | MBI 26 MIC, +Erythro. ([5]; K. pneumoniae KP002): 32 µg/mL
